Results taken from BigSolDB 2.1.

Structure (SMILES): COC1CCC2(CC1)NC(=O)C(c1cc(C)ccc1C)=C2O (stereo not given)
- solubility (mole fraction) (in acetonitrile, 288.15 K): 0.000317
- solubility (mole fraction) (in acetonitrile, 293.15 K): 0.000345
- solubility (mole fraction) (in acetonitrile, 298.15 K): 0.000375
- solubility (mole fraction) (in acetonitrile, 303.15 K): 0.000463
- solubility (mole fraction) (in acetonitrile, 308.15 K): 0.00057
- solubility (mole fraction) (in acetonitrile, 313.15 K): 0.000681
- solubility (mole fraction) (in acetonitrile, 318.15 K): 0.000791
- solubility (mole fraction) (in acetonitrile, 323.15 K): 0.000923
- solubility (mole fraction) (in acetonitrile, 328.15 K): 0.0011
- solubility (mole fraction) (in ethanol, 288.15 K): 0.00255
- solubility (mole fraction) (in ethanol, 293.15 K): 0.00276
- solubility (mole fraction) (in ethanol, 298.15 K): 0.00302
- solubility (mole fraction) (in ethanol, 303.15 K): 0.00341
- solubility (mole fraction) (in ethanol, 308.15 K): 0.00392
- solubility (mole fraction) (in ethanol, 313.15 K): 0.00447
- solubility (mole fraction) (in ethanol, 318.15 K): 0.00513
- solubility (mole fraction) (in ethanol, 323.15 K): 0.00596
- solubility (mole fraction) (in ethanol, 328.15 K): 0.00681
- solubility (mole fraction) (in methanol, 288.15 K): 0.00339
- solubility (mole fraction) (in methanol, 293.15 K): 0.00379
- solubility (mole fraction) (in methanol, 298.15 K): 0.00431
- solubility (mole fraction) (in methanol, 303.15 K): 0.00473
- solubility (mole fraction) (in methanol, 308.15 K): 0.00528
- solubility (mole fraction) (in methanol, 313.15 K): 0.00589
- solubility (mole fraction) (in methanol, 318.15 K): 0.00656
- solubility (mole fraction) (in methanol, 323.15 K): 0.00735
- solubility (mole fraction) (in methanol, 328.15 K): 0.00832
- solubility (mole fraction) (in n-propanol, 288.15 K): 0.00252
- solubility (mole fraction) (in n-propanol, 293.15 K): 0.00303
- solubility (mole fraction) (in n-propanol, 298.15 K): 0.00348
- solubility (mole fraction) (in n-propanol, 303.15 K): 0.00402
- solubility (mole fraction) (in n-propanol, 308.15 K): 0.00453
- solubility (mole fraction) (in n-propanol, 313.15 K): 0.00518
- solubility (mole fraction) (in n-propanol, 318.15 K): 0.00603
- solubility (mole fraction) (in n-propanol, 323.15 K): 0.00697
- solubility (mole fraction) (in n-propanol, 328.15 K): 0.00799
- solubility (mole fraction) (in water, 288.15 K): 1.96e-06
- solubility (mole fraction) (in water, 293.15 K): 3.14e-06
- solubility (mole fraction) (in water, 298.15 K): 4.08e-06
- solubility (mole fraction) (in water, 303.15 K): 5.12e-06
- solubility (mole fraction) (in water, 308.15 K): 6.15e-06
- solubility (mole fraction) (in water, 313.15 K): 7.28e-06
- solubility (mole fraction) (in water, 318.15 K): 8.43e-06
- solubility (mole fraction) (in water, 323.15 K): 9.14e-06
- solubility (mole fraction) (in water, 328.15 K): 1.05e-05
